Results reported in article PMC6615261, “Repurposing Azithromycin and Rifampicin Against Gram-Negative Pathogens by Combination With Peptidomimetics” (Frontiers in Cellular and Infection Microbiology, 2019).
Like-named read-outs stand apart in the source and are kept apart here.

Experiments:
[1] = tested on: P. aeruginosa ATTC 27853; settings: ATTC 27853, 24 h
Method: (§1) Minimal inhibitory concentrations (MICs) of peptidomimetics, antibiotics and their combinations were determined by broth microdilution according to the Clinical Laboratory Standards Institute performance standards (Clinical and Laboratory Standards Institute, [2013]). […] Since rifampicin and azithromycin mainly are used to treat infections with Gram-positive pathogens only CLSI clinical breakpoints were available for such bacteria. […] Potentiation of additional antibiotics by peptidomimetics was determined by using commercial 96-well plates containing varied concentrations of standard antibiotics (COMPAN1F; Trek Diagnostic Systems Inc.). The peptidomimetics were added immediately prior to inoculation with pathogen, and then MICs were determined as above. The MICs of peptidomimetic/antibiotic combinations were determined according to the method above, and the concentration ratios were selected based upon checkerboard results with 2:1 and 1:4 ratio of peptidomimetic with rifampicin or azithromycin, respectively. Minimal bactericidal concentrations (MBCs) were determined by using growth-curve assay plates. MIC plates were prepared as above, and then the plates were incubated at 37°C with continuous shaking. Growth was recorded at 10 min intervals as optical density (OD) at 600 nm during 24 h. At 24 h, for wells without growth, a sample was diluted 10-fold in sterile saline (0.9% sodium chloride) and plated onto MHA, following CLSI guidelines (Clinical and Laboratory Standards Institute, [1999]).

[2] = tested on: E. coli ST131; settings: ST131, 24 h
Method: as §1

[3] = tested on: K. pneumoniae ST258; settings: ST258, 24 h
Method: as §1

[4] = tested on: K. pneumoniae ST258; assay: MIC by broth microdilution; assay type: cell-based, Klebsiella pneumoniae
Method in brief: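 Broth microdilution per CLSI; combos at fixed peptidomimetic:antibiotic ratios (2:1 rifampicin, 1:4 azithromycin) chosen from checkerboards. Potentiation panels: standard antibiotic dilution plates plus peptidomimetic added immediately pre-inoculation; MIC read as usual.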

[5] = tested on: E. coli ST131
Method in brief: (§2)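 Two-dimensional checkerboard broth microdilution in MHB II, with twofold dilutions of peptidomimetic and antibiotic on crossed axes and 18–20 h incubation per CLSI. FICI = MICA(A+B)/MICA(alone) + MICB(A+B)/MICB(alone); ≤0.5 is interpreted as synergy.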

[6] = tested on: K. pneumoniae ST258
Method in brief: as §2

[7] = tested on: P. aeruginosa ATCC 27853
Method in brief: as §2

[8] = tested on: MDR E. coli ST131; assay: Screening of peptidomimetic-antibiotic combinations (growth / growth inhibition); assay type: cell-based, Escherichia coli; parameters: key to Growth in combination with RIF / Growth in combination with AZM: Growth (+); growth inhibition (–)
[9] = MIC of azithromycin combined with the labelled peptidomimetic
[10] = MIC of rifampicin combined with the labelled peptidomimetic

MIC (peptidomimetic alone) [1]: 1 µM
MIC (peptidomimetic alone) [2]: 1 µM
MIC (peptidomimetic alone) [3]: 8 µM
MIC K. pneumoniae ST258 ([4]; peptidomimetic alone): 16 µM
Antibiotic MIC in combination (AZM) [5, 9]: 1 µg/mL
Antibiotic MIC in combination (RIF) [5, 10]: 0.06 µg/mL
Peptidomimetic MIC alone ([5]; checkerboard): 2 µM
Peptidomimetic MIC in combination ([5]; combined with AZM): 0.25 µM
Peptidomimetic MIC in combination ([5]; combined with RIF): 0.5 µM
Antibiotic MIC in combination (AZM) [6, 9]: 4 µg/mL
Antibiotic MIC in combination (RIF) [6, 10]: 0.25 µg/mL
Peptidomimetic MIC alone ([6]; checkerboard): 16 µM
Peptidomimetic MIC in combination ([6]; combined with AZM): 0.5 µM
Peptidomimetic MIC in combination ([6]; combined with RIF): 0.5 µM
Antibiotic MIC in combination (RIF) ([7]; P. aeruginosa ATCC 27853, MIC of rifampicin combined with the labelled peptidomimetic): 1 µg/mL
Peptidomimetic MIC alone ([7]; P. aeruginosa ATCC 27853, checkerboard): 1 µM
Peptidomimetic MIC in combination ([7]; P. aeruginosa ATCC 27853, combined with AZM): 0.25 µM
Peptidomimetic MIC in combination ([7]; P. aeruginosa ATCC 27853, combined with RIF): 0.25 µM
Reduction of the MIC of azithromycin ([7]; P. aeruginosa, sub-MIC concentrations of peptidomimetic): 32- to 512 fold
Structure (SMILES): NCCCC[C@H](NC(=O)CCN(Cc1ccccc1)C(=O)[C@H](CCCCN)NC(=O)CCN(Cc1ccccc1)C(=O)[C@H](CCCCN)NC(=O)CCN(Cc1ccccc1)C(=O)[C@H](CCCCN)NC(=O)CCN(Cc1ccccc1)C(=O)[C@H](CCCCN)NC(=O)CCN(Cc1ccccc1)C(=O)[C@H](CCCCN)NC(=O)CCN(Cc1ccccc1)C(=O)[C@H](CCCCN)NC(=O)CCN(Cc1ccccc1)C(=O)[C@@H](N)CCCCN)C(=O)N(CCC(N)=O)Cc1ccccc1 [Peptidomimetic 1, H-(Lys-βNPhe)8-NH2]
MBC (peptidomimetic alone) [1]: 2 µM
MBC (peptidomimetic alone) [2]: 1 µM
MBC (peptidomimetic alone) [3]: 16 to 32 µM
Selectivity Index (SI) K. pneumoniae ST258 ([4]; average of EC50 (HepG2, NIH 3T3) divided by MIC): (10)
Screening result with rifampicin ([8]; 0.5 μM peptidomimetic + 0.5 μg/mL rifampicin): inhibit growth
Screening result with azithromycin ([8]; 0.5 μM peptidomimetic + 1 μg/mL azithromycin): prevented growth
Growth in combination with AZM ([8]; peptidomimetic 0.5 μM + azithromycin 1 μg/mL): –
Growth in combination with RIF ([8]; peptidomimetic 0.5 μM + rifampicin 0.5 μg/mL): –
